Data taken from US20220354870A1, “READY-TO-USE BUPIVISONE PLUS LIQUID FORMULATION” (LEITERS, Inc., priority 2021, published 2022).
“Also recorded” adds a separate entry of the source. Structures can show the parent of a compound that is named as a salt.

Tests used:
Format in all cases: physicochemical
[1] = Stability testing of syringed formulation prepared without preservative (Example 3); conditions: stability study
Experimental: The formulations without a preservative were prepared following the method described in Example 1 except no preservative(s) was used.
(§1) The samples were produced using an approved batch record and shipped to contract laboratories for stability testing. The samples were stored according to ICH Q1A (R2) as follows: • Long term: Refrigerated (5° C. ±3° C.) in Horizontal Orientation, Protected from Light • Accelerated Condition: Room Temperature (25° C. ±2° C. and 40% RH ±5% RH) Horizontal Orientation, Protected from Light
(§2) The method development procedure for the strength and potency aligned with the defined criteria in USP <1225> for a stability indicating method. The procedures used for microbiology testing were based on method suitability performed at T0.

[2] = Stability testing of syringed formulation with methylparaban (Example 2); conditions: stability study
Experimental: as §1, §2

[3] = Potency after room temperature storage of syringe in nitrogen-flushed hermetically sealed pouch (Example 4); conditions: formulation of Table 4 (no preservative) in syringe, hermetically sealed pouch flushed with nitrogen
Experimental: A preliminary evaluation of the feasibility of packaging syringes was performed. Hermetically sealed pouch containing a syringe with the exemplary formulation from Table 4 was flushed with nitrogen to reduce oxygen levels.

For CCCCN1CCCCC1C(=O)Nc1c(C)cccc1C (stereo not shown) [Bupivacaine HCl, bupivacaine hydrochloride], the “Impurities of the active versus limits of ICH guidelines, FDA and in-house SOP” value [1] was “met the acceptable limits”, the “Impurities of the active versus FDA/ICH guidelines” value ([2]; hydrochloride) was “met FDA/ICH Guidelines” and the “Impurities of the active versus FDA/ICH guidelines” value ([2]; listed as Bupivicaine, hydrochloride) was “met the acceptable limits”. The “Potency (% label claim) after storage at room temperature for 90 days” value [3] was 97.2%.
With CNC[C@H](O)c1ccc(O)c(O)c1 [Epinephrine, epinephrine] the “Impurities of the active versus limits of ICH guidelines, FDA and in-house SOP” value [1] was “met the acceptable limits”, the “Impurities of the active versus FDA/ICH guidelines” value [2] was “met FDA/ICH Guidelines; also recorded: met the acceptable limits” and the “Potency (% label claim) after storage at room temperature for 90 days” value [3] was 104.2%.
